The text below walks through data of patent US5705649A, “Protein staining compositions and methods” (Promega Corporation, priority 1995, dated 1998).

Data set [1] is described as follows: Spectral analyses of Coomassie Blue R and Promega Green 1, 2, 3. Type of data set: physicochemical. The conditions noted are these: diluted 1:500 in 1:1 methanol:water. As to the method:
The three solutions of Promega Green 1, 2, and 3, from examples 1, 2 and 3 respectively, were diluted approximately 500 fold into a 1:1 solution of methanol:water. The spectra of the resulting solutions and of a 12 μg/ml solution of Coomassie Blue R (in 1:1 methanol:water) were recorded from 700 to 340 nm versus 1:1 methanol:water. […] All of the derivatives gave essentially identical spectra; however, the maximal absorbance of the diluted Promega Green i was about twice that seen for the other derivatives. The derivatives had two peak absorptions in the region of the spectrum scanned, a major peak at around 630 nm and a second peak at around 440 nm. The following absorbances were recorded at the peaks near 630 nm for the three Promega Green dye solutions (diluted 1:500 in 1:1 methanol:water): […]

The subject of data set [2] is Promega Mid-Range Molecular Weight Markers. Kind of data set: Enhancement of staining of proteins in SDS-PAGE gels in 5% acetic acid. The conditions noted are these: 5% acetic acid; for lowest protein amount per band visible after enhancement: 1-2 minutes. The procedure:
The gels described above were placed in 5% acetic acid following the termination of the electrophoretic separation. Within one to two minutes the gel developed a light green background but the protein bands dramatically darkened to a green color. […] Again, the color of the background darkened to a greater degree when greater concentrations of dye were used.
The gels above (from Example 7) were placed in 5% acetic acid following termination of the electrophoretic separation. Within 1-2 minutes, all the gels turned light green and the color of the stained bands intensified such that all proteins were visible--even in the lane containing 0.25 μg protein/band.
The gels above (Example 9) were placed in 5% acetic acid following termination of the electrophoretic separation. Within 1-2 minutes, all the gels turned light green and the color of the stained bands intensified such that all proteins were visible--even in the lanes containing 0.25 μg protein/band.

Data set [3] shares this test system. The data set can be described thus: Detection of proteins during SDS-PAGE electrophoresis (dye in cathode buffer). The settings on record: 10% SDS-PAGE, dye in cathode buffer, white plastic card behind gel. The text has this: Solutions for the formation and electrophoresis of proteins were made according to the instructions given in Experiments in Gene Fusions, Silhavy, Berman, Enquist, Cold Spring Harbor Laboratory Press, Cold Spring Harbor, N.Y. with the following changes:
a) The SDS concentration in the upper and lower gel buffer components were reduced to result in a 0.05% final SDS concentration in the gel. Thus, the composition of 4× upper gel buffer was 0.5M Tris-HCl, pH 6.8, 0.2 % (w/v) sodium dodecylsulfate (SDS) and the composition of 4× lower gel buffer was 1.5M Tris-HCl, pHS.8, 0.2 % (w/v) SDS.
b) The SDS concentration in the electrophoretic (electrode) buffer was reduced to 0.04% final concentration. Thus, 4× electrode (anode or cathode) buffer was made by dissolving 60 g Tris base, 288 g glycine, and 8 g SDS dissolved in water and then diluting with water to 5 liters. Another name sometimes used for "electrode" buffer is "running" buffer.
c) The SDS concentration in the 2× sample buffer was reduced to 1% final SDS concentration. Thus, 2× sample buffer was made by mixing 0.5 ml of betamercaptoethanol, 0.25 ml of 0.1% (w/v) bromophenol blue, 1 ml of 10 % (w/v) SDS, 3 ml of water, and 5.3 ml of 2× glycerol buffer. 2× glycerol buffer is made by mixing 12.5 ml of 4× upper gel buffer and 20 ml of glycerol and diluting the resulting solution to 60 ml with water. Another name sometimes used for "sample" buffer is "loading" buffer.
d) Electrophoresis was performed using a BIO-RAD miniprotein II electrophoresis apparatus and gels were poured such that i cm of space was present between the bottom of the loading wells and the separating gel.
In other electrophoresis experiments reported in this application, the buffers used were as described above in this example. In some cases, as in this example, where preparation of a solution of dye in 150 ml of cathode (or electrode) buffer is specified, an amount of stock solution of a dye was first added to 150 ml of cathode buffer and then 125 ml of the resulting solution was used to fill the cathode buffer chamber (which holds 125 ml) in the electrophoresis apparatus. In other cases, where addition of stock solution of dye to the cathode buffer is specified without reference to the volume of cathode buffer or with reference to such volume being "125 ml," the stock solution was added directly to 125 ml of cathode buffer already in the cathode buffer chamber.
The samples used were prepared with Promega Mid-Range Molecular Weight Markers solution (Promega Corp., Madison, Wis., USA, Catalog No. V5231) (referred to hereinafter as "Promega Mid-Range [Molecular Weight] Markers or Standards") diluted into Sample Buffer. […]

In data set [4] the test system is Promega Mid Range Molecular Weight Standards. Kind of data set: Detection of denatured protein with dodecylamino and octylamino derivatives of fluorescein isothiocyanate. The procedure: A fifteen well, 12% gel was made as described in example 5 and was loaded with diluted Promega Mid Range Molecular Weight Standards to produce lanes containing samples having 200, 100, 80, 60, 40, 20 and 10 ng of protein per band. The gel was run as described in example 5 except that Promega Green 1 was not added to the cathode buffer. After electrophoresis, the gel was cut between lanes to produce gel segments containing fractionated protein samples at each of the concentrations listed above and these were placed in 30% methanol for 25-30 min at room temperature. The stock stain solutions of Example 33 were then diluted into distilled water at a concentration of 0.5% (v/v), and 50 ml of these solutions were used to stain the gels. After 1 hr incubation, the gels were visualized and photographed using a transilluminator. […] The gels were then placed in 5% methanol and allowed to destain overnight.
Gels were made and loaded as described in Example 34. The gels were incubated in 30% methanol for 15 min to fix the protein and then were incubated in 50 ml of a solution of the stains of Example 38 made by dilution of the stock stain solutions described in Example 38 to a concentration of 0.5% (v/v) in distilled water. After incubation in the staining solution for 1 hr, the gels were placed in 5% methanol and were visualized and photographed after 30 min by placement of the gel segment on a transilluminator. Photography of the segments was performed as described in Example 27. At this point, protein bands were visualized in the gel stained with the dodecylamino derivative at a concentration as low as 80 ng of protein per band.
The gel segments were then returned to the destaining solutions and allowed to incubate overnight. The segment of the gel stained with the octylamino derivative was transferred to a solution of 30% methanol following the overnight incubation and was revisualized and rephotographed after 1 hr of incubation in this methanol solution. At this point, protein was detected at fluorescently labeled bands to a concentration as low as 40 ng of protein per band.

[5] abbreviates: 0.5% (v/v) stain 1 hr, 5% methanol 30 min.

For `CCOc1ccc(N(C(C)=O)c2ccc(C(=C3C=CC(=[N+](CC)Cc4cccc(S(=O)(=O)[O-])c4)C=C3)c3ccc(N(CC)Cc4cccc(S(=O)(=O)O)c4)cc3)cc2)cc1` [Promega Green 2], in data set [1], the “Absorbance at the peak near 630 nm” value is listed as 1.37. In addition, in data set [2], the “lowest protein amount per band visible after enhancement” value came to 0.25 µg and the “staining after overnight incubation” value is reported as “slightly faded”. The “lowest protein amount per band visible while the gel was running” value in data set [3] was 1.0 µg.
For `CCCCCCCCCCCC(=O)N(c1ccc(OCC)cc1)c1ccc(C(=C2C=CC(=[N+](CC)Cc3cccc(S(=O)(=O)[O-])c3)C=C2)c2ccc(N(CC)Cc3cccc(S(=O)(=O)O)c3)cc2)cc1` [Promega Green 3] the same measures were 0.83, 0.25 µg, “darker background color” and 1.0 µg.
As to `CCCCCCCCCCCCNC(=S)Nc1ccc(-c2c3ccc(=O)cc-3oc3cc(O)ccc23)c(C(=O)O)c1` [dodecylamino derivative], the “lowest protein per band visualized” value in data set [4] (setting [5]) stood at 80 ng.
Take `CCCCCCCCNC(=S)Nc1ccc(-c2c3ccc(=O)cc-3oc3cc(O)ccc23)c(C(=O)O)c1` [octylamino derivative]: in data set [4] (setting [5]), the “background / visualization of bands” value is “high background fluorescence which prevented visualization of the protein bands”. For the same molecule, the “lowest protein per band detected” value in data set [4] (after overnight destaining, then 30% methanol 1 hr) is reported as 40 ng.
